Among the data in patent US20050261288A1, “Tetracyclic lactam derivatives and uses thereof” (priority 2004, published 2005) are IC50 and inhibition values, retold here.

The test deals with T1, PARP (Mus musculus, UniProt P11103).
T1 construct: endogenous in cells; host or cells: RAW mouse macrophages
In words: PARP activation in cultured murine macrophages, whole-cell macrophage assay (peroxynitrite-induced). The following applies: for IC50: PARP activation in cultured murine macrophages. The format is cell-based. As for the experimental part:
Without being bound by theory, Applicants believe that Tetracyclic Lactam Derivatives that inhibit PARP are useful for treating or preventing a Condition.
In a typical procedure, RAW mouse macrophages are cultured in DMEM medium with high glucose and supplemented with 10% fetal bovine serum. Cells are used at 80% confluence in 12-well plates. Cells are pretreated with various concentrations (100 nM-1 μM) of a Tetracyclic Lactam Derivative for 10 min. Peroxynitrite, a prototypical oxidant which induces DNA single strand breakage, is used to induce PARP activation. In a typical assay, peroxynitrite is diluted in phosphate buffered saline (PBS) (pH 11.0) and added to the cells in a bolus of 50 μL. Cells are then incubated for 20 minutes. Peroxynitrite is decomposed by incubation for 30 min at pH 7.0, and used as a control. After the 20 minute incubation period, the cells are spun, the medium is aspirated and the cells are resuspended in 0.5 mL assay buffer (56 mM HEPES pH 7:5, 28 mM KCl, 28 mM NaCl, 2 mM MgCl2, 0.01% w/v digitonin and 0.125 μM NAD^+ and 0.5 μCi/ml ^3H-NAD^+). Following incubation in assay buffer, (10 min at 37° C.), PARP activity can be measured as follows: 200 μL ice cold 50% w/v TCA is added and the samples are incubated for 4 h at 4° C. Samples are then spun (10 min @ 10,000 g) and the resulting pellets are washed twice with ice cold 5% w/v TCA and solubilized overnight in 250 μL 2% w/v SDS/0.1 N NaOH at 37° C. The contents of the tubes are added to 6.5 mL ScintiSafe Plus scintillation liquid (Fisher Scientific) and radioactivity is determined using a liquid scintillation counter (Wallac, Gaithersburg, Md.).
Examples of the inhibitory effects of illustrative Tetracyclic Lactam Derivatives in the whole-cell macrophage assay are illustrated in Tables 3 and 4 below.

Molecules are shown by their SMILES.

T1 sequence (P11103 whole entry): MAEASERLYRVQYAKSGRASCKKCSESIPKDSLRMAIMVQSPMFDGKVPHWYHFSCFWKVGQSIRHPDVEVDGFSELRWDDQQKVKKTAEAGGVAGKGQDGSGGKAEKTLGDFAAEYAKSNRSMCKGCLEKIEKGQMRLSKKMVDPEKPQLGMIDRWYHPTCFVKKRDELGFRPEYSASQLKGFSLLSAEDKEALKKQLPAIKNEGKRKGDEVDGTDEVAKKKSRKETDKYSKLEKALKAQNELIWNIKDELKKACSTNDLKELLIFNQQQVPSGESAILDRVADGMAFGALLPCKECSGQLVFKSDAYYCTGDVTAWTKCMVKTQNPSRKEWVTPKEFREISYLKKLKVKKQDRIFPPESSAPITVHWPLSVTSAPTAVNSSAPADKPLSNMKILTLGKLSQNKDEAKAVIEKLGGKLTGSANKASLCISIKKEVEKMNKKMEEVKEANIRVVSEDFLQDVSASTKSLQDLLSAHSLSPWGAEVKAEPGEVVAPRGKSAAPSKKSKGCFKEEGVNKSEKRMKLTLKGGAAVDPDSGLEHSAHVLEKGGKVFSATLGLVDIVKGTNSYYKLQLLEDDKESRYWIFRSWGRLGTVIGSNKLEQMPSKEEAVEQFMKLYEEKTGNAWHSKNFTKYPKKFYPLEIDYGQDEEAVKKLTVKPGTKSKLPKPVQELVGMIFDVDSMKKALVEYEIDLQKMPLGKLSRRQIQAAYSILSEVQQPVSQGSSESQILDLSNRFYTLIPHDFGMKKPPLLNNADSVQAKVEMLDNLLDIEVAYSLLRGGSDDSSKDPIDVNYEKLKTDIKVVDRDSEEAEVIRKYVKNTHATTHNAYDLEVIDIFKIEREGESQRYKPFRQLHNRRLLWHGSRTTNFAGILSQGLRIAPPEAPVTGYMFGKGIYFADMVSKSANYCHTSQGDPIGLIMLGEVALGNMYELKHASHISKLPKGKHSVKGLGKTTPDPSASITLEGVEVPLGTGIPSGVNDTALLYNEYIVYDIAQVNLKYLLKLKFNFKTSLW

`COC(=O)n1c2ccccc2c2[nH]c(=O)c3ccccc3c21` [Compound 61, METHYL-5-OXO-5,6-DIHYDRO-INDOLO[3,2-C]ISOQUINOLINE-11-CARBOXYLATE] yielded an IC50 of 10 to 100 µM. `CCOC(=O)n1c2ccccc2c2[nH]c(=O)c3ccccc3c21` [Compound 63, ETHYL-5-OXO-5,6-DIRYDRO-INDOLO[3,2-C]ISOQUINOLINE-11-CARBOXYLATE] displayed an IC50 of 1 to 10 µM. For the setting “0.1 μM, RAW mouse macrophages, peroxynitrite-induced PARP activation”, this compound yielded an inhibition at 0.1 µM of 33%. Further, the inhibition at 0.3 µM (0.3 μM, RAW mouse macrophages, peroxynitrite-induced PARP activation) was 43%. Further, the inhibition at 1 µM (1 μM, RAW mouse macrophages, peroxynitrite-induced PARP activation) came out at 50%. For the same compound, under “3 μM, RAW mouse macrophages, peroxynitrite-induced PARP activation”, the inhibition at 3 µM is 65%.

For `CCCOC(=O)n1c2ccccc2c2[nH]c(=O)c3ccccc3c21` [Compound 107, N-PROPYL-5-OXO-5,6-DIHYDRO-INDOLO[3,2-C]ISOQUINOLINE-11-CARBOXYLATE], the IC50 fell in the range of 10 to 100 µM. On the same count and under the same terms, then `CC(C)OC(=O)n1c2ccccc2c2[nH]c(=O)c3ccccc3c21` [Compound 108, ISO-PROPYL-5-OXO-5,6-DIHYDRO-INDOLO[3,2-C]ISOQUINOLINE-11-CARBOXYLATE], with 10 to 100 µM.

Turning to `CCCCOC(=O)n1c2ccccc2c2[nH]c(=O)c3ccccc3c21` [Compound 109, N-BUTYL-5-OXO-5,6-DIHYDRO-INDOLO[3,2-C]ISOQUINOLINE-11-CARBOXYLATE], the IC50 lay within 10 to 100 µM.
